Measurements: patent US12018093B2, “Hemiasterlin derivatives and antibody-drug conjugates including same” (priority 2017, dated 2024)
Values joined by “and” are separate entries in the source; they are usually repeats but may differ in a detail not shown here. Equal values may be shown once. “Also recorded” adds a separate entry of the source. Read-outs that look alike come from different tables or passages of the source.

Legend:
in vitro = details: PAMPA, pH 7.4
Protocol: By the parallel artificial membrane permeability assay (PAMPA), the membrane permeability of compounds of Examples was examined as follows: To the donor plate, System solution (pION inc.) and GIT Lipid-0 (pION inc.) were added in an amount of 200 μL and 4 μL for each well, respectively. To the acceptor plate, Acceptor Sink Buffer (pION inc.) was added in an amount of 200 μL. Both plates were superposed and incubated at 37° C. for 4 hours, and then, UVs in the solutions on the side of acceptor and on the side of donor were measured with an UV plate reader (190 to 500 nm). Compounds with poor UV absorption were measured by LC-MS. The permeability coefficient Pe (10^−6 cm/sec) of the drug was calculated by the following formula.

SK-BR-3 cells = test: Cellular toxicity test (2), CellTiter-Glo, SK-BR-3; type: cell-based; details: Homo sapiens, 72 h, cultured 3 days, cell viability
Protocol: (§1) The IC50 value was calculated by the following formula: IC50(nM)=antilog(LOG10(a/b)×(e−d)/(c−d)+LOG10b) • a: concentration a of test substance • b: concentration b of test substance • c: cell viability upon adding test substance with concentration a • d: cell viability upon adding test substance with concentration b • e: intermediate value between maximum and minimum among cell viabilities upon • adding test substances with different concentrations (a and b are concentrations crossing the cell viability e, and a>b is indicated).
(§2) The cell viability at each concentration was calculated by the following formula: Cell Viability (%)=a′/b′×100 • a′: mean value of luminescence amount of wells to which test substance was added (n=6) • b′: mean value of luminescence amount of wells to which test substance was not added (n=6) • (n represents the number of evaluations performed per test substance concentration).
SK-BR-3 cells (ATCC), which are a human breast cancer cell line, were cultured in McCoy's 5A (GIBCO) containing 10% fetal bovine serum (MP Biomedicals) (hereinafter, referred to as the “culture medium” in this test). SK-BR-3 cells were prepared to be 2×10^6 cells/mL in the culture medium, added to a 96 well microplate for cell culturing in an amount of 50 μL for each well, and cultured at 37 degree under 5% CO2 overnight, and then, compounds of Examples or hemiasterlin 4 times diluted with the culture medium in 8 stages were added to the microplate in an amount of 50 μL for each well. To wells to which the test substance was not added, the culture medium was added in an amount of 50 μL for each well. These were cultured at 37 degree under 5% CO2 for 3 days. After culturing, the microplate was taken out from the incubator, and was left at rest at room temperature for 10 minutes. 50 μL of CellTiter-Glo Luminescent Cell Viability Assay (Promega) was added, and the resultant mixture was stirred. This mixture was incubated at a dark place for 20 minutes. Using a microplate luminometer, luminescence at each well was measured, thereby calculating the cell viability for each concentration of the test substance. The IC50 value was calculated in accordance with the method described in Test Example 3.

porcine tubulin [1] = biological target: T1, porcine tubulin (Sus scrofa, UniProt P02550+P02554); test: Activity for inhibiting microtubule polymerization using porcine tubulins (1); type: biochemical; set-up: purchased Cytoskeleton Inc. BK006P; details: compound 0.91 μM; absorbance at 340 nm, 37° C.; FIG. 1 and FIG. 2
T1 sequence (P02554 whole entry): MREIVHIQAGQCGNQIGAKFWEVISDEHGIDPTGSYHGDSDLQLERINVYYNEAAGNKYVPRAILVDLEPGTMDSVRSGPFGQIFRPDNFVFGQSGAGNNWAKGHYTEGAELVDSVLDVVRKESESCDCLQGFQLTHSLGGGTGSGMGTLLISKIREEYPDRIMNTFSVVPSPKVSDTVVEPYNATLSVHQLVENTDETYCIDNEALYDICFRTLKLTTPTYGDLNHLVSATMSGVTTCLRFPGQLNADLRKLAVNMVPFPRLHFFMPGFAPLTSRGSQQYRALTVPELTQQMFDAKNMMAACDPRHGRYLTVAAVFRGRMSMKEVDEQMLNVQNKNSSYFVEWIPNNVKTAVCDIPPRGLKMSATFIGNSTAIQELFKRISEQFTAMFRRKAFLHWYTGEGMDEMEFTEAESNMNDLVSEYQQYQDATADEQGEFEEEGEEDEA
T1 sequence (P02550 whole entry): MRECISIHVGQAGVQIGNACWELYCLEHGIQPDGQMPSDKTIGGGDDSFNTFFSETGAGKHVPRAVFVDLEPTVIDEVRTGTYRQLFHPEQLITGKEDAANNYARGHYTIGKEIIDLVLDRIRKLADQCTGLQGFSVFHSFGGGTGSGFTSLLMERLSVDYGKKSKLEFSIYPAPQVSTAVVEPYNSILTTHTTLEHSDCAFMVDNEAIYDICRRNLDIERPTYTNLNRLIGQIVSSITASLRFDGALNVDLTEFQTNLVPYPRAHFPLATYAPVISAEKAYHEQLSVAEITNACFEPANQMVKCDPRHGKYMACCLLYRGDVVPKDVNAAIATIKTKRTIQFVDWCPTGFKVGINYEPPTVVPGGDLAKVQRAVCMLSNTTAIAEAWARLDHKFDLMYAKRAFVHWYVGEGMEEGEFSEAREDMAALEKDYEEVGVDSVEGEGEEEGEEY

Karpas-299 cells = test: Cellular toxicity test (1), CellTiter-Glo, Karpas-299; type: cell-based; details: Homo sapiens, 96 h, cultured 4 days, cell viability
Protocol: (§3) SU-DHL-1 cells (American Type Culture Collection, hereinafter, ATCC) and Karpas-299 cells (European Collection of Authenticated Cell Cultures, hereinafter, ECACC), which are human lymphoma cell lines, were cultured in RPMI 1640 (GIBCO) containing 10% fetal bovine serum (MP Biomedicals) (hereinafter, referred to as the “culture medium” in this test). SU-DHL-1 cells and Karpas-299 cells were prepared to be 2×10^6 cells/mL in the culture medium, and were added to a 96 well microplate for cell culturing in an amount of 50 μL for each well. Compounds of Examples or hemiasterlin 4 times diluted with the culture medium in 8 stages were added to the microplate in an amount of 50 μL for each well. To wells to which the test substance was not added, the culture medium was added in an amount of 50 μL for each well. These were cultured at 37 degree under 5% CO2 for 4 days. After culturing, the microplate was taken out from the incubator, and was left at rest at room temperature for 10 minutes. To each well, 50 μL of CellTiter-Glo Luminescent Cell Viability Assay (Promega) was added, and the resultant mixture was stirred. This mixture was incubated at a dark place for 20 minutes. Using a microplate luminometer, luminescence at each well was measured, thereby calculating the cell viability for each concentration of the test substance. From the cell viability, the IC50 value of the test substance was determined.
as §1, §2

[2] = Pharmacokinetic evaluation test using mice; type: in vivo; details: for half-life: single intravenous administration
Protocol: A pharmacokinetic evaluation test was performed by single intravenous administration of Example 4 at a dose of 1.0 mg/kg to mice. A calibration curve was made from measurements of Example 4 with known concentration, and by interpolating measurements of each specimen to this, the amount of the compound contained in unit volume of each plasma was calculated using LC-MS. Pharmacokinetics of compound 14 and hemiasterlin were similarly evaluated.
(n.d. in the tables means less than the detection limit value (0.5 ng/mL).)

SU-DHL-1 cells = test: Cellular toxicity test (1), CellTiter-Glo, SU-DHL-1; type: cell-based; details: Homo sapiens, 96 h, cultured 4 days, cell viability
Protocol: as §3, §1, §2

porcine tubulin [3] = biological target: T1, porcine tubulin; test: Activity for inhibiting microtubule polymerization using porcine tubulins (2), microtubule polymerization rate; details: 60 minutes after assay initiation; relative to wells without compound; lower = stronger inhibition
[4] = mouse, plasma, iv, 1 mg/kg, single intravenous 1.0 mg/kg, 0.5 hr, read-out: Blood concentration, mean value
[5] = mouse, plasma, iv, 1 mg/kg, single intravenous 1.0 mg/kg, 2 hr, read-out: Blood concentration, individual mice 1-3
[6] = mouse, plasma, iv, 1 mg/kg, single intravenous 1.0 mg/kg, 2 hr, read-out: Blood concentration, mean value
[7] = single intravenous 1.0 mg/kg, 0.5 hr, 1 mg/kg
[8] = single intravenous 1.0 mg/kg, 2 hr, 1 mg/kg
[9] = single intravenous 1.0 mg/kg, 6 hr
[10] = single intravenous 1.0 mg/kg, 24 hr

SMILES | IC50 (SK-BR-3 cells) [nM] | activity for inhibiting microtubule polymerization (porcine tubulin [1]) | IC50 (Karpas-299 cells) [nM] | half-life ([2]; mouse, plasma, 1 mg/kg) [h] | concentration at 0.5 hr [2, 4] [ng/mL] | concentration at 2 hr [2, 5] [ng/mL] | concentration at 2 hr [2, 6] [ng/mL] | Blood concentration, individual mice 1-3 [2, 7] | Blood concentration, individual mice 1-3 [2, 8] | IC50 (SU-DHL-1 cells) [nM] | Microtubule polymerization rate (%) (porcine tubulin [3]) | further results
CN[C@H](C(=O)N[C@H](C(=O)N(C)[C@H](/C=C(\C)C(=O)N[C@H](CCC(=O)O)C(=O)O)C(C)C)C(C)(C)C)C(C)(C)c1cn(C)c2ccccc12 [Example 4] | 193 | exhibited activities for inhibiting microtubule polymerization; also recorded: exhibited a stronger polymerization inhibitory activity | 291 | < 0.5 | 13.7 | 0.7 | 0.8 | 10.3 ng/mL and 10.2 ng/mL and 20.6 ng/mL | 1.0 ng/mL and 0.7 ng/mL | 250 | – | Papp (in vitro): < 0.1 ×10⁻⁶ cm/s; Blood concentration, individual mice 1-3 [2, 9]: n.d. (less than the detection limit value (0.5 ng/mL)); Blood concentration, mean value [2, 9]: n.d. (less than the detection limit value (0.5 ng/mL)); Blood concentration, individual mice 1-3 [2, 10]: n.d. (less than the detection limit value (0.5 ng/mL)); Blood concentration, mean value [2, 10]: n.d. (less than the detection limit value (0.5 ng/mL)); Blood concentration of Example 4 detected as metabolite of Example 14 ([2]; single intravenous administration of Example 14, 6 hr, animal 1): n.d. (less than the detection limit value (0.5 ng/mL)); Blood concentration of Example 4 detected as metabolite of Example 14 ([2]; single intravenous administration of Example 14, 6 hr, animal 2): n.d. (less than the detection limit value (0.5 ng/mL)); Blood concentration of Example 4 detected as metabolite of Example 14 ([2]; single intravenous administration of Example 14, 6 hr, animal 3): n.d. (less than the detection limit value (0.5 ng/mL)); Blood concentration of Example 4 detected as metabolite of Example 14, mean ([2]; single intravenous administration of Example 14, 6 hr): n.d. (less than the detection limit value (0.5 ng/mL)); Blood concentration of Example 4 detected as metabolite of Example 14 ([2]; single intravenous administration of Example 14, 24 hr, animal 1): n.d. (less than the detection limit value (0.5 ng/mL)); Blood concentration of Example 4 detected as metabolite of Example 14 ([2]; single intravenous administration of Example 14, 24 hr, animal 2): n.d. (less than the detection limit value (0.5 ng/mL)); Blood concentration of Example 4 detected as metabolite of Example 14 ([2]; single intravenous administration of Example 14, 24 hr, animal 3): n.d. (less than the detection limit value (0.5 ng/mL)); Blood concentration of Example 4 detected as metabolite of Example 14, mean ([2]; single intravenous administration of Example 14, 24 hr): n.d. (less than the detection limit value (0.5 ng/mL))
CCOC(=O)CC[C@@H](NC(=O)/C(C)=C/[C@H](C(C)C)N(C)C(=O)[C@@H](NC(=O)[C@@H](NC)C(C)(C)c1cn(C)c2ccccc12)C(C)(C)C)C(=O)OCC [Example 9] | – | exhibited activities for inhibiting microtubule polymerization | – | – | – | – | – | – | – | – | – | –
CN[C@H](C(=O)N[C@H](C(=O)N(C)[C@H](/C=C(\C)C(=O)N[C@@H](CC(=O)O)C(=O)O)C(C)C)C(C)(C)C)C(C)(C)c1cn(C)c2ccccc12 [Example 11] | 157 | – | 220 | – | – | – | – | – | – | 158 | 5 | –
CN[C@H](C(=O)N[C@H](C(=O)N(C)[C@H](/C=C(\C)C(=O)N[C@@H](CS)C(=O)OC)C(C)C)C(C)(C)C)C(C)(C)c1cn(C)c2ccccc12 [Example 22] | 1.92 | – | – | – | – | – | – | – | – | 1.22 | – | –
CN[C@H](C(=O)N[C@H](C(=O)N(C)[C@H](/C=C(\C)C(=O)N[C@@H](CS)C(=O)O)C(C)C)C(C)(C)C)C(C)(C)c1cn(C)c2ccccc12 [Example 23] | 143 | exhibited activities for inhibiting microtubule polymerization | – | – | – | – | – | – | – | > 50 | – | –
CN[C@H](C(=O)N[C@H](C(=O)N(C)[C@H](/C=C(\C)C(=O)O)C(C)C)C(C)(C)C)C(C)(C)c1cn(C)c2ccccc12 [Hemiasterlin, hemiasterlin] | 0.088 | – | 0.032 | < 13.1 | 65 | 25.1 | 25.8 | 54.5 ng/mL and 99.8 ng/mL and 40.6 ng/mL | 22.2 ng/mL and 30.20 ng/mL | – | 3 | concentration at 6 hr ([2]; mouse, plasma, iv, 1 mg/kg, single intravenous 1.0 mg/kg, 6 hr, read-out: Blood concentration, individual mice 1-3): 18.9 ng/mL; concentration at 6 hr ([2]; mouse, plasma, iv, 1 mg/kg, single intravenous 1.0 mg/kg, 6 hr, read-out: Blood concentration, mean value): 22.4 ng/mL; concentration at 24 hr ([2]; mouse, plasma, iv, 1 mg/kg, single intravenous 1.0 mg/kg, 24 hr, read-out: Blood concentration, mean value): 8.3 ng/mL; Blood concentration, individual mice 1-3 ([2]; single intravenous 1.0 mg/kg, 6 hr, 1 mg/kg): 18.2 ng/mL and 30.2 ng/mL; Blood concentration, individual mice 1-3 ([2]; single intravenous 1.0 mg/kg, 24 hr, 1 mg/kg): 2.4 ng/mL and 12.8 ng/mL and 9.5 ng/mL
